Assay results as given in patent US20100278733A1, “COMPOSITION FOR DIAGNOSIS OF AMYLOID-RELATED DISEASE” (priority 2007, published 2010).
One block for each molecule: values may come before it.

Tests used:
[1] = target: T1, Aβ(1-42) aggregate (Homo sapiens, UniProt P05067); assay: Binding inhibition experiment using Aβ(1-42) aggregate, Ki values (Example 2); conditions: compound numbers of Example 2; for Ki: radioactive ligand [^125I]CL-NMe2, mean ± standard error of 3 experiments (compound 4: 6 experiments), read-out: Ki values calculated by inhibition experiment
T1 construct: Amyloid β protein (Human, 1-42) [TFA form] was purchased from Peptide Institute, Inc; purchased Peptide Institute, Inc
T1 sequence (P05067 672-713 limits assumed): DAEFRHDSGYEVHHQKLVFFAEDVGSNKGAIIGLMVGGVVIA
Experimental: As a radioactive iodine-125 (^125I), Iodine-125 (3.7 GBq/mL) manufactured by MP Biomedicals, Inc. was used. Reverse phase HPLC was performed at a flow rate of 1.0 mL/min using a Cosmosil 5C18-AR-II column (4.6×150 mm) manufactured by Nacalai Tesque Inc. and ultrapure water:acetonitrile=3:7 as an elution solvent. ^1HNMR was measured using Varian Gemini 300 and tetramethylsilane as an internal standard substance. Mass spectrometry was performed using JEOL IMS-DX300. Preparative TLC was performed using 12 PLC plates 20×20-cm-Silica gel 60 F254, 2 mm manufactured by MERCK. Amyloid β protein (Human, 1-42) was purchased from Peptide Institute, Inc., and special grade reagents were used as other reagents.
Aβ(1-42) was dissolved in 10 mM phosphate buffer containing 1 mM EDTA (pH 7.4) at a concentration of 0.25 mg/mL, and the mixture was incubated at 37° C. for 42 h to prepare an Aβ(1-42) aggregate.
[…] of 10% EtOH solution, […] of a solution of [^125I]4-diethylamino-4′-iodochalcone ([^125I]CL-NMe2) in 10% ethanol, and […] of a sample solution at various concentrations (0 to 20 mM) were mixed, […] of an Aβ(1-42) aggregate solution was finally added, and the mixture was allowed to stand at room temperature for 3 h. Aβ(1-42) aggregate-bound compounds and nonbound compounds were separated with a Brandel M-24R cell harvester using a Whatman GF/B filter. Radioactivities remaining on the filter after filtration were measured with a γ-counter, and inhibition curves were created using Graph Pad Prism 4.0 to calculate inhibition constants (Ki values).

[2] = In-vivo radioactivity distribution experiment using normal mice (Example 2); conditions: Example 2 numbering; for In-vivo radioactivity distribution: blood / In-vivo radioactivity distribution: brain / In-vivo radioactivity distribution: heart / In-vivo radioactivity distribution: intestine / In-vivo radioactivity distribution: kidney / In-vivo radioactivity distribution: liver / In-vivo radioactivity distribution: lung / In-vivo radioactivity distribution: pancreas / In-vivo radioactivity distribution: spleen / In-vivo radioactivity distribution: stomach: normal mice, intravenous
Experimental: Radioactive iodine labeling compounds were diluted with physiological saline containing 10% EtOH. To each of four or five 5-week-old male ddY mice (20 to 25 g) per group, […] of a labeled compound, [^125I]Compound 7, 10, 13, or 14 (0.2 to 0.4 mCi), was administered from the caudal vein. Animals were decapitated at 2, 10, 30, or 60 min, blood was collected, the major organs were isolated, and then weights and radioactivities thereof were measured.

SMILES: CNc1ccc(C=CC(=O)c2ccc(I)s2)cc1 [Compound 13 in Example 2, 1-(5-iodo-2-thienyl)-3-(4-methylaminophenyl)-prop-2-en-1-one]
Ki [1]: 14.1 ± 0.6 nM | stability in the organism ([2]; in words: radioactivity accumulation in the stomach, retention in blood, deiodination): instability in the organism | In-vivo radioactivity distribution: blood ([2]; 2 min): 3.00 (0.83) percent of the dose/g | In-vivo radioactivity distribution: brain ([2]; 2 min): 2.56 (0.44) percent of the dose/g | In-vivo radioactivity distribution: heart ([2]; 2 min): 3.55 (0.57) percent of the dose/g | In-vivo radioactivity distribution: intestine ([2]; 2 min): 1.60 (0.32) percent of the dose/g | In-vivo radioactivity distribution: kidney ([2]; 2 min): 4.50 (1.00) percent of the dose/g | In-vivo radioactivity distribution: liver ([2]; 2 min): 8.41 (1.24) percent of the dose/g | In-vivo radioactivity distribution: lung ([2]; 2 min): 5.61 (1.33) percent of the dose/g | In-vivo radioactivity distribution: pancreas ([2]; 2 min): 3.73 (0.67) percent of the dose/g | In-vivo radioactivity distribution: spleen ([2]; 2 min): 2.06 (0.49) percent of the dose/g | In-vivo radioactivity distribution: stomach ([2]; 2 min): 1.48 (0.39) percent of the dose | In-vivo radioactivity distribution: blood ([2]; 10 min): 3.68 (0.70) percent of the dose/g | In-vivo radioactivity distribution: brain ([2]; 10 min): 1.13 (0.16) percent of the dose/g | In-vivo radioactivity distribution: heart ([2]; 10 min): 2.48 (0.36) percent of the dose/g | In-vivo radioactivity distribution: intestine ([2]; 10 min): 3.86 (0.20) percent of the dose/g | In-vivo radioactivity distribution: kidney ([2]; 10 min): 6.59 (1.34) percent of the dose/g | In-vivo radioactivity distribution: liver ([2]; 10 min): 13.29 (1.65) percent of the dose/g | In-vivo radioactivity distribution: lung ([2]; 10 min): 6.33 (1.42) percent of the dose/g | In-vivo radioactivity distribution: pancreas ([2]; 10 min): 2.53 (0.72) percent of the dose/g | In-vivo radioactivity distribution: spleen ([2]; 10 min): 4.00 (1.55) percent of the dose/g | In-vivo radioactivity distribution: stomach ([2]; 10 min): 5.13 (1.67) percent of the dose | In-vivo radioactivity distribution: blood ([2]; 30 min): 2.29 (0.32) percent of the dose/g | In-vivo radioactivity distribution: brain ([2]; 30 min): 0.28 (0.06) percent of the dose/g | In-vivo radioactivity distribution: heart ([2]; 30 min): 1.45 (0.17) percent of the dose/g | In-vivo radioactivity distribution: intestine ([2]; 30 min): 4.36 (1.49) percent of the dose/g | In-vivo radioactivity distribution: kidney ([2]; 30 min): 3.16 (0.80) percent of the dose/g | In-vivo radioactivity distribution: liver ([2]; 30 min): 5.10 (1.12) percent of the dose/g | In-vivo radioactivity distribution: lung ([2]; 30 min): 3.17 (0.52) percent of the dose/g | In-vivo radioactivity distribution: pancreas ([2]; 30 min): 1.48 (0.34) percent of the dose/g | In-vivo radioactivity distribution: spleen ([2]; 30 min): 2.06 (0.28) percent of the dose/g | In-vivo radioactivity distribution: stomach ([2]; 30 min): 9.94 (1.69) percent of the dose | In-vivo radioactivity distribution: blood ([2]; 60 min): 2.89 (0.49) percent of the dose/g | In-vivo radioactivity distribution: brain ([2]; 60 min): 0.15 (0.03) percent of the dose/g | In-vivo radioactivity distribution: heart ([2]; 60 min): 1.43 (0.29) percent of the dose/g | In-vivo radioactivity distribution: intestine ([2]; 60 min): 6.26 (1.78) percent of the dose/g | In-vivo radioactivity distribution: kidney ([2]; 60 min): 2.52 (0.48) percent of the dose/g | In-vivo radioactivity distribution: liver ([2]; 60 min): 4.32 (0.75) percent of the dose/g | In-vivo radioactivity distribution: lung ([2]; 60 min): 3.11 (0.66) percent of the dose/g | In-vivo radioactivity distribution: pancreas ([2]; 60 min): 1.76 (0.40) percent of the dose/g | In-vivo radioactivity distribution: spleen ([2]; 60 min): 2.52 (0.36) percent of the dose/g | In-vivo radioactivity distribution: stomach ([2]; 60 min): 14.32 (1.81) percent of the dose

SMILES: CN(C)c1ccc(C=CC(=O)c2ccc(Br)o2)o1 [Compound 34 in Example 2, 1-(5-bromo-2-furyl)-3-(5-dimethylamino-2-furyl)-prop-2-en-1-one]
Ki [1]: > 10000 nM

SMILES: Nc1ccc(C=CC(=O)c2ccc(I)cc2)cc1 [CL-NH2, reference compound]
Ki [1]: 105 ± 12 nM

SMILES: CN(C)c1ccc(C=CC(=O)c2ccc(Br)o2)s1 [Compound 35 in Example 2, 1-(5-bromo-2-furyl)-3-(5-dimethylamino-2-thienyl)-prop-2-en-1-one]
Ki [1]: 2650 ± 221 nM

SMILES: CN(C)c1ccc(C(=O)C=Cc2ccc(Br)s2)cc1 [Compound 46 in Example 2, 3-(5-bromo-2-thienyl)-1-(4-dimethylaminophenyl)-prop-2-en-1-one]
Ki [1]: 106 ± 7.1 nM

Further molecules by falling Ki [1], results first:

Ki [1]: 223 ± 76.1 nM
SMILES: COc1ccc(/C=C/C(=O)c2ccc(I)cc2)cc1OC [Compound 42 in Example 2, 3,4-dimethoxy-4′-iodochalcone]
binding affinity for the Aβ(1-42) aggregate ([1]; in words, derivatives with two substituents on Ring A): no compound showed a high binding affinity

Ki [1]: 137 ± 3.4 nM
SMILES: CN(C)c1ccc(C=CC(=O)c2ccc(I)s2)s1 [Compound 37 in Example 2, 3-(S-dimethylamino-2-thienyl)-1-(5-iodo-2-thienyl)-prop-2-en-1-one]

Ki [1]: 13.3 ± 1.9 nM | In-vivo radioactivity distribution: blood ([2]; 2 min): 1.87 (0.23) percent of the dose/g | In-vivo radioactivity distribution: brain ([2]; 2 min): 2.77 (0.37) percent of the dose/g | In-vivo radioactivity distribution: heart ([2]; 2 min): 5.23 (0.61) percent of the dose/g | In-vivo radioactivity distribution: intestine ([2]; 2 min): 2.69 (0.43) percent of the dose/g | In-vivo radioactivity distribution: kidney ([2]; 2 min): 6.30 (0.85) percent of the dose/g | In-vivo radioactivity distribution: liver ([2]; 2 min): 13.99 (1.57) percent of the dose/g | In-vivo radioactivity distribution: lung ([2]; 2 min): 6.02 (0.60) percent of the dose/g | In-vivo radioactivity distribution: pancreas ([2]; 2 min): 3.85 (1.97) percent of the dose/g | In-vivo radioactivity distribution: spleen ([2]; 2 min): 2.35 (0.35) percent of the dose/g | In-vivo radioactivity distribution: stomach ([2]; 2 min): 0.76 (0.13) percent of the dose | In-vivo radioactivity distribution: blood ([2]; 10 min): 1.89 (0.61) percent of the dose/g | In-vivo radioactivity distribution: brain ([2]; 10 min): 2.04 (0.26) percent of the dose/g | In-vivo radioactivity distribution: heart ([2]; 10 min): 2.05 (0.37) percent of the dose/g | In-vivo radioactivity distribution: intestine ([2]; 10 min): 9.27 (1.36) percent of the dose/g | In-vivo radioactivity distribution: kidney ([2]; 10 min): 4.51 (1.29) percent of the dose/g | In-vivo radioactivity distribution: liver ([2]; 10 min): 10.29 (2.06) percent of the dose/g | In-vivo radioactivity distribution: lung ([2]; 10 min): 3.92 (0.76) percent of the dose/g | In-vivo radioactivity distribution: pancreas ([2]; 10 min): 2.12 (0.31) percent of the dose/g | In-vivo radioactivity distribution: spleen ([2]; 10 min): 1.52 (0.19) percent of the dose/g | In-vivo radioactivity distribution: stomach ([2]; 10 min): 0.89 (0.28) percent of the dose | In-vivo radioactivity distribution: blood ([2]; 30 min): 1.51 (0.40) percent of the dose/g | In-vivo radioactivity distribution: brain ([2]; 30 min): 0.63 (0.06) percent of the dose/g | In-vivo radioactivity distribution: heart ([2]; 30 min): 1.10 (0.16) percent of the dose/g | In-vivo radioactivity distribution: intestine ([2]; 30 min): 12.50 (2.49) percent of the dose/g | In-vivo radioactivity distribution: kidney ([2]; 30 min): 4.10 (1.15) percent of the dose/g | In-vivo radioactivity distribution: liver ([2]; 30 min): 6.69 (1.21) percent of the dose/g | In-vivo radioactivity distribution: lung ([2]; 30 min): 1.95 (0.25) percent of the dose/g | In-vivo radioactivity distribution: pancreas ([2]; 30 min): 0.85 (0.10) percent of the dose/g | In-vivo radioactivity distribution: spleen ([2]; 30 min): 0.82 (0.15) percent of the dose/g | In-vivo radioactivity distribution: stomach ([2]; 30 min): 0.73 (0.23) percent of the dose | In-vivo radioactivity distribution: blood ([2]; 60 min): 1.38 (0.54) percent of the dose/g | In-vivo radioactivity distribution: brain ([2]; 60 min): 0.42 (0.11) percent of the dose/g | In-vivo radioactivity distribution: heart ([2]; 60 min): 0.84 (0.26) percent of the dose/g | In-vivo radioactivity distribution: intestine ([2]; 60 min): 20.09 (5.48) percent of the dose/g | In-vivo radioactivity distribution: kidney ([2]; 60 min): 4.59 (1.57) percent of the dose/g | In-vivo radioactivity distribution: liver ([2]; 60 min): 7.06 (2.45) percent of the dose/g | In-vivo radioactivity distribution: lung ([2]; 60 min): 1.71 (0.29) percent of the dose/g | In-vivo radioactivity distribution: pancreas ([2]; 60 min): 0.84 (0.22) percent of the dose/g | In-vivo radioactivity distribution: spleen ([2]; 60 min): 0.89 (0.12) percent of the dose/g | In-vivo radioactivity distribution: stomach ([2]; 60 min): 2.17 (1.24) percent of the dose
SMILES: CN(C)c1ccc(C(=O)/C=C/c2ccc(I)cc2)cc1 [Compound 10 in Example 2, 4-iodo-4′-dimethylaminochalcone]
